“Also recorded” adds a separate entry of the source.
Key:
[1] = target: T1, human CAR (Homo sapiens, UniProt Q14994); test: Northern blot of gene induction in CAR humanized mice; conditions: CAR humanized animals
T1 sequence (Q14994 1-348 isoform Q14994-2): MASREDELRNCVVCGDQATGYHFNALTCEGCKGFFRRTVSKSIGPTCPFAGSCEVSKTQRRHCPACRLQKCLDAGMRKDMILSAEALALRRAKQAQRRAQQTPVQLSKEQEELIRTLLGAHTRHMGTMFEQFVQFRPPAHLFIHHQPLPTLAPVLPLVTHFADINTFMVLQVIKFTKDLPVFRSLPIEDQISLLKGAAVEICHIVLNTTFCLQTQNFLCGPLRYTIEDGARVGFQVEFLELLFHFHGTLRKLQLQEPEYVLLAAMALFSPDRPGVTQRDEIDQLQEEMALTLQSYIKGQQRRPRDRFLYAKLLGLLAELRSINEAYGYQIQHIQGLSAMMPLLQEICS
Procedure: CAR humanized mice (n=3) were treated with 500 mg/kg APAP or vehicle. After two hours, total liver RNA was prepared and subjected to Northern blot analysis with indicated probes.

[2] = target: T2, murine CAR (Mus musculus, UniProt O35627); conditions: mice expressing only murine CAR (heterozygous, no transgene), 24 hours
T2 sequence (O35627 1-358): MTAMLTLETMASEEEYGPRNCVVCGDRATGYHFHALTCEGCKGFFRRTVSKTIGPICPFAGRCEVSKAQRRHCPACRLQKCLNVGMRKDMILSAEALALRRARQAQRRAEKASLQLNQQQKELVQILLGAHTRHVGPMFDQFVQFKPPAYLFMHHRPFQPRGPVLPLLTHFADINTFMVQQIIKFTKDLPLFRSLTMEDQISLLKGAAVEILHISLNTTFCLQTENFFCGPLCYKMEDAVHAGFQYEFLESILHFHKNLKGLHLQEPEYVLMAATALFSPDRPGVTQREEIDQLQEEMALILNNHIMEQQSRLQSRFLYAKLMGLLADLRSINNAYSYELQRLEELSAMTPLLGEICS
Procedure: (§1) Total RNA was prepared from the livers of the individual mice, and CYP2B10 mRNA expression was assessed by Northern blotting.
(§2) Mice heterozygous for the murine CAR gene mutation and lacking the human CAR transgene express only murine CAR. […] Mice homozygous for the murine CAR gene mutation and carrying the human CAR transgene express only human CAR in the liver.

[3] = system: murine CAR; conditions: no functional CAR (homozygous mutation, no transgene), 24 hours
Procedure: as §1, §2

[4] = target: T1, human CAR; test: CYP2B10 mRNA induction in humanized CAR mice lacking murine CAR; conditions: mice expressing only human CAR in liver, 24 hours
Procedure: as §1, §2

[5] = system: wild-type and CAR knockout mice; test: APAP toxicity after pretreatment with inducers (serum ALT, histology); assay type: in vivo, mouse; conditions: APAP 250 mg/kg; for hepatotoxicity, inducer plus APAP: CAR null mice; for liver histology after pretreatment and APAP: wild-type animals; for ALT levels and hepatic necrosis, inducer plus APAP: wild-type, 24 hours
Procedure: CAR (+/+) or CAR (−/−) animals pretreated with phenobarbital (PB), TCPOBOP (TC), or vehicle alone were administered a 250 mg/kg dose of APAP by intraperitoneal injection (n=5–7 per treatment group) (FIG. 11A). Serum was collected and alanine aminotransferase (ALT) levels were measured after 24 hours. Liver sections from different treatments were examined by histological staining (FIG. 11B). Liver samples from all treated animals were analyzed but only representative histology is presented. […] CAR (+/+) or CAR (−/−) animals were pretreated with PB, TCPOBOP (TC), or vehicle alone for three days (FIG. 11C). […] Liver samples treated as indicated were collected two hours after APAP and GSH levels were measured (n=5–7) (FIG. 11D).
The effect of PB and the potent CAR agonist TCPOBOP on APAP toxicity was examined in wild-type and CAR knockout mice. Both strains of mice were treated with inducers or the vehicle control, followed by 250 mg/kg APAP. For these studies, mice were kept in a pathogen-free animal facility under standard 12 hour light/12 hour dark cycle and fed standard rodent chow and water ad libitum. At least five mice between 8 and 10 weeks old were used in each treatment group. For 3-day PB (100 mg/kg) treatment, mice were injected intraperitoneally three times, one injection per day. TCPOBOP (3 mg/kg) and/or APAP were injected intraperitoneally. Phenobarbital and TCPOBOP were suspended or dissolved in corn oil, and APAP was dissolved in basic PBS (pH=11). PB and APAP were purchased from Sigma (St Louis, Mo.); TCPOBOP was a gift from Dr. Stephen Safe.
For histologic examination of the treated mice, the left lobe of the livers was removed and immediately fixed in 4% formaldehyde-PBS solution, embedded in paraffin, sectioned at 5 μm, and stained with hematoxylin and eosin. Samples were examined under a light microscope. For RNA studies, total RNA was extracted using TRIzol Reagent (Invitrogen Life Technologies, Carlsbad, Calif.) according to the manufacture's instruction. Equivalent amount of RNA from 3–5 mice were pooled and 10 μg of each sample was subjected to northern blot analysis. […] Preparation of probes for CYP2B10 and CYP3A11 were described as previously (Wei et al., Nature 407:920–923, 2000 and Zelko et al., Mol Cell Biol 21:2838–2846, 2001). PCR primers used were: CYP1A2: 5′-[…]-3′ (SEQ ID NO: 19) and 5′-[…]-3′ (SEQ ID NO: 20), CYP2E1: 5′-[…]-3′ (SEQ ID NO: 21) and 5′-[…]-3′ (SEQ ID NO: 22), GSTPi: 5′-[…]-3′ (SEQ ID NO: 23) and 5′-[…]-3′ (SEQ ID NO: 24). Hepatic non-protein thiol was measured as an indication of hepatic GSH content. Mice were sacrificed two hours after intraperitoneal injection with APAP. Livers were removed and immediately homogenized in four volumes of 5% trichloroacetic acid and then centrifuged at 1,600×g for 15 minutes. Supernatant (0.5 ml) was mixed with 1.5 ml 0.1 mM Ellman's reagent [5,5′-dithio-bis(2-nitrobenzoic acid)] (Sigma, St Louis, Mo.) and allowed to stand at room temperature for 15 minutes. Absorbance was read at 412 nm using GSH solutions as quantitative standards.

[6] = system: hepatocytes; test: Hepatocyte proliferation (BrdU incorporation); assay type: in vivo, mouse; conditions: wild-type animals
Procedure: FIG. 3B is a set of pictures of PB-treated, TCPOBOP-treated, or control mice that were treated with BrdU for two hours before their liver tissues were harvested.
To determine the proliferation of hepatocytes following PB or TCPOBOP treatment, mice pretreated with corn oil, PB, or TCPOBOP received a single intraperitoneal dose of BrdU/FdU (2 ml/100 g, Amersham). Mice were sacrificed approximately 2 hours after BrdU administration. BrdU incorporation was determined using a mouse anti-BrdU monoclonal antibody (DAKO Corporation) and Vectastain ABC Kit (Vector Laboratories Inc.) (FIG. 3B), using standard procedures.

[7] = system: wild-type and CAR −/− mice; test: Liver enlargement (liver mass relative to body weight); assay type: in vivo, mouse; conditions: for hyperplasia or hypertrophy in the liver: CAR knockout mice; for liver mass: three days of treatment
Procedure: FIG. 3A is a bar graph showing the liver enlargement and hepatocyte proliferation by PB or TCPOBOP. Mice (8–10 weeks old) were treated with PB or TCPOBOP for 3 days, and then both liver mass and body weight were measured. The data is presented as percentage of liver mass relative to total body weight.
This hepatomegaly is thought to be a reflection of both cellular hypertrophy and mitogenesis.

SMILES | expression of CYP1A2 and CYP3A11 mRNAs [1] | induction of CYP2B10 mRNA [2] | induction of CYP2B10 mRNA [3] | induction of CYP2B10 mRNA [4] | hepatotoxicity, inducer plus APAP [5] | liver histology after pretreatment and APAP [5] | ALT levels and hepatic necrosis, inducer plus APAP [5] | BrdU-positive hepatocytes [6] | hyperplasia or hypertrophy in the liver [7] | liver mass ([7]; CAR −/− mice) | liver mass ([7]; wild-type mice)
CCC1(c2ccccc2)C(=O)NC(=O)NC1=O [PB, phenobarbital] | induced expression | induction of CYP2B10 mRNA | no response | induction of CYP2B10 mRNA; also recorded: induces a CAR target gene | no such hepatotoxicity | extensive hepatic centrilobular necrosis | strongly elevated ALT levels and hepatic necrosis | presence of BrdU-positive hepatocytes | not detected | did not show any evidence of increased liver mass | increase in liver mass
Clc1cnc(Oc2ccc(Oc3ncc(Cl)cc3Cl)cc2)c(Cl)c1 [TCPOBOP, 1,4-bis[2-(3,5-dichloropyridyloxy)]benzene] | – | induction of CYP2B10 mRNA | no response | did not respond; also recorded: not by TCPOBOP | no such hepatotoxicity | extensive hepatic centrilobular necrosis | strongly elevated ALT levels and hepatic necrosis | presence of BrdU-positive hepatocytes | not detected | did not show any evidence of increased liver mass | increase in liver mass
